In series [1] the test system is rats, CFA injected hindpaw. Conditions: Table B comparators; based on our data as well as data available in the literature; cited from earlier work.
Series [2] deals with Male Holtzman rats, thermal injury. Particulars: Table B comparators; based on our data as well as data available in the literature; cited from earlier work.
In series [3] the test system is Male Holtzmann rats, intraplantar formalin. Conditions: Table B comparators; based on our data as well as data available in the literature; cited from earlier work.
The subject of series [4] is rats, carrageenan-injected hindpaw. Particulars: Table B comparators; based on our data as well as data available in the literature; cited from earlier work.
In series [5] the test system is Male Holtzman rats. Particulars: Table B comparators; based on our data as well as data available in the literature; cited from earlier work.
For series [6], the system named is Male Holtzman rats, thermal injury. Put plainly: Thermal injury model, thermal escape latency (Hargreaves). It counts as in vivo, rat. How it is done: The thermal injury model was used to evaluate the effectiveness of an exemplary TRPV3 inhibitor in the treatment of nociceptive pain. FIG. 1 provides a schematic representation of the protocol used to evaluate a TRPV3 inhibitor in the thermal injury model.
(§1) Briefly, the following protocol was followed. Male Holtzman rats (approximately 300 grams) were tested on thermal escape using a Hargreaves type apparatus. Under light anesthesia, a thermal injury (52° C. for 45 seconds) was applied to one heel. The animals were tested for thermal escape latency of the injured and uninjured paw before and at 30, 60, 80 and 120 minutes after injury. Drug (a TRPV3 inhibitor or morphine) or vehicle (0.5% methylcellulose) was administered after the baseline measurement and approximately 15-20 minutes prior to the thermal injury. In addition to the escape latency measurement, behavioral observations were made throughout the experiment.

Series [7] concerns Male Holtzman rats. Description: Behavioral deficits / side effects observed in thermal injury experiment (animals affected of n). It counts as in vivo, rat. Particulars: for Blistered paw / Catalepsy / Corneal response / Exopthalmos / Pinna response / Spontaneous agitation / Tactile allodynia: 10 mg/kg. How it is done: as §1
Table A provides a comparison of the side-effects observed in rats following administration of TRPV3 inhibitor 64, at varying concentrations, versus the side-effects observed in rats administered 10 mg/kg of morphine. Side-effects of rats administered 0.5% methycellulouse were observed and served as a control.

Each structure is given as a SMILES string.

With `O=C(NCc1ccc(C(F)(F)F)cc1)Nc1cccc2cnccc12` [TRPV1 Antagonist], in series [1], the “CFA Model” value is listed as “Effective”. The Acute thermal injury entry in series [2] is recorded as “Effective”. For the same compound, the “Formalin Model” value in series [3] was “Ineffective”. The “Carrageenan Model” value in series [4] was “Effective”.
`CN1CC[C@]23c4c5ccc(O)c4O[C@H]2[C@@H](O)C=C[C@H]3[C@H]1C5` [Morphine, morphine]: the Non-narcotic entry in the series on Male Holtzman rats [5] was “Narcotic”. In addition, in series [1], the “CFA Model” value is given as “Effective”. Moreover, in series [2], the Acute thermal injury entry is reported as “Effective”. For the same compound, in series [6] (morphine (FIG. 4)), the “Effect on escape latency of injured and un-injured paw” value was “does have an effect on both the injured and un-injured paw”. The “Thermal escape latency after treatment” value in series [6] (morphine, FIG. 4 legend) is listed as “elevated above the baseline”. Besides, in the series on Male Holtzman rats [7] (Pre Injury Observation), the Blistered paw is reported as 0 of 7, the Catalepsy is on record as 0 of 7, the Corneal response is recorded as 0 of 7 and the Exopthalmos is 0 of 7. Also, in the series on Male Holtzman rats [7] (Pre Injury Observation), the Pinna response is recorded as 0 of 7, the Spontaneous agitation is recorded as 0 of 7 and the Tactile allodynia is 0 of 7. Moreover, in the series on Male Holtzman rats [7] (t = 30 min), the Blistered paw was 0 of 7, the Catalepsy is 4 of 7, the Corneal response is given as 0 of 7 and the Exopthalmos was 6 of 7. In addition, in the series on Male Holtzman rats [7] (t = 30 min), the Pinna response was 5 of 7, the Spontaneous agitation is 0 of 7 and the Tactile allodynia is reported as 0 of 7. For the same compound, in the series with Male Holtzman rats [7] (t = 60 min), the Blistered paw was 0 of 7, the Catalepsy is listed as 3 of 7, the Corneal response is listed as 0 of 7 and the Exopthalmos was 6 of 7. In the series with Male Holtzman rats [7] (t = 60 min), the Pinna response is given as 2 of 7, the Spontaneous agitation is listed as 0 of 7 and the Tactile allodynia is on record as 0 of 7. For the same compound, in the series with Male Holtzman rats [7] (t = 90 min), the Blistered paw is given as 0 of 7, the Catalepsy was 1 of 7, the Corneal response is listed as 0 of 7 and the Exopthalmos is recorded as 6 of 7. Besides, in the series on Male Holtzman rats [7] (t = 90 min), the Pinna response was 0 of 7, the Spontaneous agitation is reported as 0 of 7 and the Tactile allodynia was 0 of 7. Moreover, in the series on Male Holtzman rats [7] (t = 120 min), the Blistered paw is recorded as 0 of 7, the Catalepsy is recorded as 0 of 7, the Corneal response is given as 0 of 7 and the Exopthalmos is 0 of 7. Moreover, in the series with Male Holtzman rats [7] (t = 120 min), the Pinna response was 0 of 7, the Spontaneous agitation is listed as 0 of 7 and the Tactile allodynia is 0 of 7. For the same compound, the Side-effects of administration entry with Male Holtzman rats [7] (morphine 10 mg/kg) is “exopthalmos (bulging eyes), catalepsy (a near catatonic state), and the pinna response”. Moreover, the “Carrageenan Model” value in series [4] is “Effective”.

The values are drawn from US8916550B2, “Compounds for modulating TRPV3 function” (Hydra Biosciences, Inc., priority 2005, dated 2014).
